Experimental findings from patent publication US10836725B2, “Modulators of the integrated stress pathway” (Calico Life Sciences LLC, priority 2016, dated 2020) are described below.

Structures are written as SMILES. Some results are limits rather than exact numbers.

The subject of the experiment is ATF4 luciferase reporter. Description: ATF4-Luc assay in HEK293T cells carrying the ATF4 luciferase reporter (in vitro model of VWMD). Format: cell-based, human. The following applies: Homo sapiens, HEK-293T, 1 μg/mL tunicamycin, 7 hours, luminescence (One Glo). The method, boiled down: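 Reporter cells were stably generated by retroviral transduction and puromycin selection, then seeded at 30,000 cells/well. Next day, cells received 1 μg/mL tunicamycin with 200 nM test compound for 7 h, and luciferase luminescence was read with a one-step reagent. Values reported as EC50.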
Broadly, the EC50 is the concentration at which the effect is half-maximal. On to `O=C(COc1ccc(Cl)c(F)c1)NC12CC(C(=O)NCCc3ccncc3)(C1)C2` [Compound 234, 3-[2-(4-chloro-3-fluorophenoxy)acetamido]-N-[2-(pyridin-4-yl)ethyl]bicyclo[1.1.1]pentane-1-carboxamide], for which the EC50 is over 2000 nM.

`O=C(COc1ccc(Cl)c(F)c1)NC12CC(C(=O)NCc3ccon3)(C1)C2` [Compound 235, 3-[2-(4-chloro-3-fluorophenoxy)acetamido]-N-[(1,2-oxazol-3-yl]methyl]bicyclo[1.1.1]pentane-1-carboxamide]: the EC50 is over 2000 nM.

With `COc1ccc(OC)c(CNC(=O)C23CC(NC(=O)COc4ccc(Cl)c(F)c4)(C2)C3)c1` [Compound 236, 3-[2-(4-chloro-3-fluorophenoxy)acetamido]-N-[(2,5-dimethoxyphenyl]methyl]bicyclo[1.1.1]pentane-1-carboxamide], the EC50 was over 2000 nM.

For the compound `O=C(COc1ccc(Cl)c(F)c1)NC12CC(C(=O)NCc3cccc(F)c3)(C1)C2` [Compound 237, 3-[2-(4-chloro-3-fluorophenoxy)acetamido]-N-[(3-fluorophenyl)methyl]bicyclo[1.1.1]pentane-1-carboxamide], the 50% effective concentration (EC50) was over 2000 nM.

As to `CCCCc1ccc(CNC(=O)C23CC(NC(=O)COc4ccc(Cl)c(F)c4)(C2)C3)cc1` [Compound 238, N-[(4-butylphenyl)methyl]-3-[2-(4-chloro-3-fluorophenoxy)acetamido]bicyclo[1.1.1]pentane-1-carboxamide], the EC50 is over 2000 nM.

With `O=C(COc1ccc(Cl)c(F)c1)NC12CC(C(=O)NCCc3ccc(F)cc3)(C1)C2` [Compound 239, 3-[2-(4-chloro-3-fluorophenoxy)acetamido]-N-[2-(4-fluorophenyl)ethyl]bicyclo[1.1.1]pentane-1-carboxamide], the EC50 was over 2000 nM.

As to `CCOc1ccc(CNC(=O)C23CC(NC(=O)COc4ccc(Cl)c(F)c4)(C2)C3)cc1` [Compound 240, 3-[2-(4-chloro-3-fluorophenoxy)acetamido]-N-[(4-ethoxyphenyl)methyl]bicyclo[1.1.1]pentane-1-carboxamide], the EC50 is over 2000 nM.

In the case of `O=C(COc1ccc(Cl)c(F)c1)NC12CC(C(=O)NCc3ccc(Cl)c(Cl)c3)(C1)C2` [Compound 241, 3-[2-(4-chloro-3-fluorophenoxy)acetamido]-N-[(3,4-dichlorophenyl]methyl]bicyclo[1.1.1]pentane-1-carboxamide], the concentration giving a half-maximal response (EC50) is over 2000 nM.

For the compound `O=C(COc1ccc(Cl)c(F)c1)NC12CC(C(=O)NCCc3cccnc3)(C1)C2` [Compound 242, 3-[2-(4-chloro-3-fluorophenoxy)acetamido]-N-[2-(pyridin-3-yl)ethyl]bicyclo[1.1.1]pentane-1-carboxamide], the EC50 was over 2000 nM.

For `O=C(COc1ccc(Cl)c(F)c1)NC12CC(C(=O)NCc3ccccc3OC(F)F)(C1)C2` [Compound 243, 3-[2-(4-chloro-3-fluorophenoxy)acetamido]-N-{[2-(difluoromethoxy)phenyl]methyl}bicyclo[1.1.1]pentane-1-carboxamide], the 50% effective concentration (EC50) is over 2000 nM.

Regarding `Cc1occc1CNC(=O)C12CC(NC(=O)COc3ccc(Cl)c(F)c3)(C1)C2` [Compound 244, 3-[2-(4-chloro-3-fluorophenoxy)acetamido]-N-[(2-methylfuran-3-yl)methyl]bicyclo[1.1.1]pentane-1-carboxamide], the EC50 was over 2000 nM.

Consider `O=C(COc1ccc(Cl)c(F)c1)NC12CC(C(=O)NCc3ccc(F)cc3)(C1)C2` [Compound 245, 3-[2-(4-chloro-3-fluorophenoxy)acetamido]-N-[(4-fluorophenyl)methyl]bicyclo[1.1.1]pentane-1-carboxamide], for which the half-maximal effective concentration (EC50) was over 2000 nM.

Regarding `O=C(COc1ccc(Cl)c(F)c1)NC12CC(C(=O)NCc3ccc(SC(F)(F)F)cc3)(C1)C2` [Compound 246, 3-[2-(4-chloro-3-fluorophenoxy)acetamido]-N-({4-[(trifluoromethyl)sulfanyl]phenyl}methyl)bicyclo[1.1.1]pentane-1-carboxamide], the concentration giving a half-maximal response (EC50) is over 2000 nM.

`CCCc1cc(CNC(=O)C23CC(NC(=O)COc4ccc(Cl)c(F)c4)(C2)C3)on1` [Compound 247, 3-[2-(4-chloro-3-fluorophenoxy)acetamido]-N-[(3-propyl-1,2-oxazol-5-yl)methyl]bicyclo[1.1.1]pentane-1-carboxamide]: the 50% effective concentration (EC50) was over 2000 nM.

On to `COc1ccc(CCNC(=O)C23CC(NC(=O)COc4ccc(Cl)c(F)c4)(C2)C3)cc1Cl` [Compound 248, 3-[2-(4-chloro-3-fluorophenoxy)acetamido]-N-[2-(3-chloro-4-methoxyphenyl)ethyl]bicyclo[1.1.1]pentane-1-carboxamide], for which the EC50 was over 2000 nM.

Consider `COc1ccc(CNC(=O)C23CC(NC(=O)COc4ccc(Cl)c(F)c4)(C2)C3)cc1Cl` [Compound 249, 3-[2-(4-chloro-3-fluorophenoxy)acetamido]-N-[(3-chloro-4-methoxyphenyl)methyl]bicyclo[1.1.1]pentane-1-carboxamide], for which the EC50 was over 2000 nM.

Consider `O=C(COc1ccc(Cl)c(F)c1)NC12CC(C(=O)NCc3cccc(OC(F)F)c3)(C1)C2` [Compound 250, 3-[2-(4-chloro-3-fluorophenoxy)acetamido]-N-{[3-(difluoromethoxy)phenyl]methyl}bicyclo[1.1.1]pentane-1-carboxamide], for which the EC50 was over 2000 nM.

On to `Cc1ccc(CNC(=O)C23CC(NC(=O)COc4ccc(Cl)c(F)c4)(C2)C3)c(C)n1` [Compound 251, 3-[2-(4-chloro-3-fluorophenoxy)acetamido]-N-[(2,6-dimethylpyridin-3-yl)methyl]bicyclo[1.1.1]pentane-1-carboxamide], for which the EC50 was over 2000 nM.

For the compound `O=C(COc1ccc(Cl)c(F)c1)NC12CC(C(=O)NCCn3cccn3)(C1)C2` [Compound 252, 3-[2-(4-chloro-3-fluorophenoxy)acetamido]-N-[2-(1H-pyrazol-1-yl)ethyl]bicyclo[1.1.1]pentane-1-carboxamide], the EC50 is over 2000 nM.
